Reference: patent publication US11389449B2, “Treatment of metabolic syndrome with an sGC stimulator” (Cyclerion Therapeutics, Inc., priority 2017, dated 2022)
Entries after “also recorded” stand apart in the source; their conditions may differ.

System: patients with stable type 2 diabetes and hypertension
Test: Randomized placebo-controlled Phase 2a study of 2 dose regimens (NCT03091920), metabolic assessments
Format: in vivo, human
Details: for Apolipoprotein B Change LS Mean / Apolipoprotein B LS Mean Diff (placebo adjusted): serum; for serum triglycerides LS Mean Diff (placebo adjusted) / serum triglycerides LS Mean reduction from baseline: Day 15
Procedure: The serum ApoB level was determined using microsphere-based HSP-ApoB assay, consisting of using antigen-specific antibodies optimized in a capture-sandwich format. 5 μL of a diluted mixture of capture-antibody microspheres were mixed with 5 μL bloker and 10 μL standard, pre-diluted sample, or control in a hard-bottom microtiter plate. Plama and serum samples were diluted of the appropriate dilution. The plate was incubated for 1 hour at room temperature. 10 μL biotinylated detection antibody was added to each well, thoroughly-mixed and incubated for 1 hour. 10 μL diluted Streptavidin-phycoerythrin was added to each well, thoroughly mixed, and incubated for 60 minutes. A filter-membrane microtiter plate was pre-wetted by adding 100 μL wash buffer followed by aspiration via a vaccum manifoled device. The reaction contents of the hard-bottom plate were then transferred to the respective wells of the filter plate. All wells were vacuum aspirated and the contents were washed twice with 100 μL wash buffer. After the last wash, 100 μL wash buffer was added to each well, and the washed microspheres were resuspended with thorough mixing. The plate was then analyzed on the Luminex platform.
Plasma ADMA concentrations were determined by liquid chromatography and tandem mass spectrometry (LC-MS/MS). Plasma samples of the patients were collected in a purple-top container with K2 EDTA anticoagulant. The tube was filled completely and the sample was mixed well and separated by centrifugation. A minium volume of 0.20 mL was needed for testing and the plasma sample was extracted by a simple protein precipation. The supernatant was then transferred to a diluent before analysis. The extract was analyzed using liquid chromatography (LC) with tandem mass spectrometry (MS/MS). The standard curve was 10.0 ng/mL to 1000.0 ng/mL.
The primary objectives of this clinical study (ClinicalTrials.gov Identifier: NCT03091920) were to compare the safety, tolerability, PK profile, and PD effects of 2 treatment regimens of Compound I tablet (40 mg per day, as 20 mg BID or as 40 mg QD) administered orally for 2 weeks to patients with stable type 2 diabetes mellitus and hypertension. Patients in this trial were on stable medications for glucose control (blood glucose lowering medication, antihyperglycemics) and hypertension (antihypertensives). Secondary measurements included assessment of fasting glucose levels, fasting insulin levels, hemoglobin A1C (HbA1C) levels, serum cholesterol levels, ApoB levels, HOMA-IR, ADMA concentrations, serum triglyceride levels, BMI, liver transaminases and body weight, among others.
Allocation: Randomized; Intervention Model: Parallel Assignment; Masking: Triple (Participant, Care Provider, Investigator); Masking Description: Double-Blind; Primary Purpose: Treatment
This is a randomized, double-blind, placebo-controlled study consisting of 3 distinct periods (see FIG. 30).
13 male patients and 13 female patientes with stable type 2 diabetes and hypertension were enrolled. Patients were randomized in a 5:5:3 ratio (QD:BID:Placebo) to receive 1 of 2 Compound I treatment regimens or placebo (all regimens were masked) as outlined in the table above.
Clinic Period: The Clinic Period began at Check-in on Day-2 (2 days before dosing) and ended at the time of Discharge on Day 15. During the 17-day Clinic Period, patients were confined to the Study Center and received a standard diet for diabetics. Patients who met eligibility criteria based on Screening Visit assessments were admitted to the Study Center on Day-2 for baseline procedures. On the morning of Day 1 (there is no Day 0), eligible patients were randomized in a 5:5:3 ratio to 1 of 3 masked treatment regimens: QD/QD, BID/QD, or PBO/PBO. On Days 1 to 14, patients received a morning (AM) dose and an evening (PM) dose.
Compound I was administered as multiples of a 5 mg oral tablet dosage form. Placebo was administered as multiples of a 5 mg tablet. […]

[1] = 40 mg, regimens combined, 14 days
[2] = subgroup of 18 patients on concomitant statin therapy, regimens combined, 14 days

In the case of `OC(CNc1nc(-c2cc(-c3ccon3)n(Cc3ccccc3F)n2)ncc1F)(C(F)(F)F)C(F)(F)F` [Compound I], the HDL cholesterol levels (40 mg total daily dose, over the trial) is reported as “remained unchanged; also recorded: remained closed to baseline; also recorded: no changes”, the “mean serum ALT decrease from baseline” value [1] is reported as 4.9 IU/L and the “mean serum AST decrease from baseline” value [1] is reported as 4.5 IU/L. For the same compound, the “mean serum GGT decrease from baseline” value [1] was 2.4 U/L, the “Mean Apo-B levels decline in treated patients” value (14 days) was “approximately 17%” and the “HbA1C levels over placebo” value (14 days of treatment) was “No meaningful improvements”. For the same compound, the “plasma fasting glucose LS Mean reduction from baseline” value (BID/QD (20 mg BID days 1-7; 40 mg QD days 8 to 14), day 15) was -35.3 mg/dL, the “Apolipoprotein B Change LS Mean” value (BID/QD (N = 10), day 15) was -219.4 µg/mL and the “serum triglycerides LS Mean Diff (placebo adjusted)” value (from here on “serum triglycerides LS Mean Diff”) (BID/QD) was -14.3 mg/dL. The “serum triglycerides LS Mean reduction from baseline” value (BID/QD) was -46.4 mg/dL, the “LDL cholesterol Mean Diff (SE), placebo adjusted” value (shortened to “LDL cholesterol Mean Diff (SE)”) (BID/QD, day 15) was −20.2 (9.2) mg/dL and the “LDL cholesterol Mean reduction from baseline (SE), least square” value (BID/QD, day 15) was −14.0 (5.6) mg/dL. For the same compound, the “plasma fasting glucose LS Mean Diff (placebo adjusted)” value (“plasma fasting glucose LS Mean Diff” below) (BID/QD, day 15) was -15.6 mg/dL, the “serum cholesterol LS Mean Diff (placebo adjusted)” value (“serum cholesterol LS Mean Diff” for short) (BID/QD, day 15) was -20.9 mg/dL and the “serum cholesterol LS Mean reduction from baseline” value (BID/QD, day 15) was -20.2 mg/dL. The “serum LDL cholesterol reduced when compared to placebo” value (“serum LDL cholesterol reduced when” for short) (BID/QD, day 15, after 14 days of treatment) was “about 20 mg/dL”, the “serum LDL cholesterol reduced when” value (BID/QD, day 15, % of total cholesterol) was 13% and the “Apolipoprotein B LS Mean Diff (placebo adjusted)” value (BID/QD, day 15) was -168.9 µg/mL. The “plasma fasting glucose LS Mean reduction from baseline” value (Combined group (BID/QD and QD/QD), day 15) was -32.5 mg/dL, the “serum triglycerides LS Mean Diff” value (Combined group) was -14.2 mg/dL and the “serum triglycerides LS Mean reduction from baseline” value (Combined group) was -46.2 mg/dL. For the same compound, the “LDL cholesterol Mean Diff (SE)” value (Combined group, day 15) was −20.2 (8.3) mg/dL, the “LDL cholesterol Mean reduction from baseline (SE), least square” value (Combined group, day 15) was −13.9 (4.0) mg/dL and the “plasma fasting glucose LS Mean Diff” value (Combined group, day 15) was -12.8 mg/dL. The “serum cholesterol LS Mean Diff” value (Combined group, day 15) was -25.5 mg/dL, the “serum cholesterol LS Mean reduction from baseline” value (Combined group, day 15) was -24.7 mg/dL and the “Apolipoprotein B Change LS Mean” value (Overall 40 mg Total Daily Dose (N = 20), day 15) was -169.5 µg/mL. For the same compound, the “plasma fasting glucose LS Mean reduction from baseline” value (QD/QD (40 mg QD days 1 to 14), day 15) was -29.6 mg/dL, the “Apolipoprotein B Change LS Mean” value (QD/QD (N = 10), day 15) was -119.6 µg/mL and the “serum triglycerides LS Mean Diff” value (QD/QD) was -14.0 mg/dL. The “serum triglycerides LS Mean reduction from baseline” value (QD/QD) was -46.0 mg/dL, the “LDL cholesterol Mean Diff (SE)” value (QD/QD, day 15) was −19.9 (9.2) mg/dL and the “LDL cholesterol Mean reduction from baseline (SE), least square” value (QD/QD, day 15) was −13.7 (5.6) mg/dL. For the same compound, the “plasma fasting glucose LS Mean Diff” value (QD/QD, day 15) was -10.0 mg/dL, the “serum cholesterol LS Mean Diff” value (QD/QD, day 15) was -30.1 mg/dL and the “serum cholesterol LS Mean reduction from baseline” value (QD/QD, day 15) was -29.3 mg/dL. The “serum LDL cholesterol reduced when” value (QD/QD, day 15, after 14 days of treatment) was “about 20 mg/dL”, the “serum LDL cholesterol reduced when” value (QD/QD, day 15, % of total cholesterol) was 13% and the “Apolipoprotein B LS Mean Diff (placebo adjusted)” value (QD/QD, day 15) was -69.1 µg/mL. For the same compound, the “fasting plasma insulin levels over placebo” value (all of 26 patients, including those on insulin therapy) was “no meaningful improvements”, the “ADMA plasma concentration decrease from baseline” value (combined Compound I group, 14 day study, baseline of 105 ng/ml) was 8.7 ng/mL and the “ADMA plasma concentration mean reduction adjusted to placebo” value (combined group, after 14 days of treatment) was “about 11 ng/mL”. For the same compound, the “serum ALT change compared to baseline” value (over 14 days) was −4.9 IU/L, the “serum ALT reduction compared to baseline” value (over 14 days) was 20% and the “serum AST change compared to baseline” value (over 14 days) was −4.5 IU/L. For the same compound, the “serum AST reduction compared to baseline” value (over 14 days) was 20%, the “weight or BMI, adjusted to placebo” value (over the 14 days of treatment) was “No meaningful changes” and the “fasting plasma insulin change adjusted to placebo” value (patients not on insulin) was -13 pmol/L. The “reduction in HOMA-IR from baseline” value (patients not taking concomitant insulin (12 on Compound I), 14 days) was 36%, the “reduction in HOMA-IR adjusted to placebo” value (patients not taking concomitant insulin, 14 days) was 23% and the “apolipoprotein B decline, Compound I vs. PBO-treated patients” value (post-hoc analysis, 14 days) was -119 µg/mL. For the same compound, the “LDL cholesterol decrease in treated vs. placebo patients” value [2] was -16 mg/dL, the “total cholesterol decrease in treated vs. placebo patients” value [2] was -17 mg/dL and the mean decrease of plasma blood glucose relative to placebo (subgroup using only oral antihyperglycemic agents without insulin, regimens combined, 14 days) was -19 mg/dL.
